Assay results reported in doi:10.1101/2023.03.24.534094v2 (biorxiv, 2023).

Key:
Experiment in all cases: biochemical
MST4 = MST4 (Homo sapiens, UniProt Q9P289); details: 10 µM; binder
MST2 = target: T1, MST2 (Homo sapiens, UniProt Q13188); details: 10 µM; binder
T1 sequence (Q13188 1-491): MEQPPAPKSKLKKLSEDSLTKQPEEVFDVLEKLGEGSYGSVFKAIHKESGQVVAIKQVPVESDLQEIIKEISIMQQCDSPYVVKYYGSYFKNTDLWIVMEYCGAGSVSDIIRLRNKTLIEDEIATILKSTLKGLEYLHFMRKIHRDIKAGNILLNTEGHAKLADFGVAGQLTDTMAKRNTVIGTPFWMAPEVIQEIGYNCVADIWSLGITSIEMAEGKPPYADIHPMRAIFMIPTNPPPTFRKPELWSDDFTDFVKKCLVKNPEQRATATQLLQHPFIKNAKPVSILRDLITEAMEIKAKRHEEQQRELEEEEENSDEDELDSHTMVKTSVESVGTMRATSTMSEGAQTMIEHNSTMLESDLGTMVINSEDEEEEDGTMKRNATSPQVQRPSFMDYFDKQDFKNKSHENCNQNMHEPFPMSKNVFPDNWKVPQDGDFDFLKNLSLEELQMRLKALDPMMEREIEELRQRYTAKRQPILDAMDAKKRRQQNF

MST1 = target: T2, MST1 (Homo sapiens, UniProt Q13043)
T2 sequence (Q13043 1-487): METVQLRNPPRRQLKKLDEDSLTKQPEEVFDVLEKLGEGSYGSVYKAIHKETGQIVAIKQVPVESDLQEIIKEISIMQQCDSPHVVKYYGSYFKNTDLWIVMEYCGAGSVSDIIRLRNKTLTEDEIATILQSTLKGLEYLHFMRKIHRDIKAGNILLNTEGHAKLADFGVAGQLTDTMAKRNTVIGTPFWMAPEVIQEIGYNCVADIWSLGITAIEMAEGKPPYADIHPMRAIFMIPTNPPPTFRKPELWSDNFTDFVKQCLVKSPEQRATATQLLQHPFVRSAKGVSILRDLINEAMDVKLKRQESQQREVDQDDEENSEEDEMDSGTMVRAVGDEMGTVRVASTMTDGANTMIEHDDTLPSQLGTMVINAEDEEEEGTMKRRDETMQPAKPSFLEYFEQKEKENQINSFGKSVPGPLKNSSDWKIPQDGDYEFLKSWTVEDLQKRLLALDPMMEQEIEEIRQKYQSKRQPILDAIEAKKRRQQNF

Sequence of MST4 (Q9P289 whole entry): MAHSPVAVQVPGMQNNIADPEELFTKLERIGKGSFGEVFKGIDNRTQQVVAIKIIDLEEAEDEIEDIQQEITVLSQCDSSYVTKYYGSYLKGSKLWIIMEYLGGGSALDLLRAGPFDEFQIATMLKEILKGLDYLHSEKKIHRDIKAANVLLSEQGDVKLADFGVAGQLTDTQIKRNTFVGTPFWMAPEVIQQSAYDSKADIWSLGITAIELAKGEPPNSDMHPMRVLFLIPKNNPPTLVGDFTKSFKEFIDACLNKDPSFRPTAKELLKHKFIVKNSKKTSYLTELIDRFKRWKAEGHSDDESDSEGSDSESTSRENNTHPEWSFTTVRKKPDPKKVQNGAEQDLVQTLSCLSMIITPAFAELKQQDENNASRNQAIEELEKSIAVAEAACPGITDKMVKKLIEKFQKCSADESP

dTm MST4 (MST4) [°C]	dTm MST2 (MST2) [°C]	dTm MST1 (MST1; 10 µM, binder) [°C]	Structure (SMILES)	ΔTm at 10 µM (MST1; read-out: dTm MST1) [°C]
2.7	2.5	1.8	CNc1ncc2cc(-c3ccc(-c4ncccc4F)cc3Cl)c(=O)n(C[C@H]3OC[C@H](N)CO3)c2n1 [compound 1, MRIA9]	–
–	–	–	CN[C@@H]1C[C@H]2O[C@@](C)([C@@H]1OC)n1c3ccccc3c3c4c(c5c6ccccc6n2c5c31)C(=O)NC4 [Staurosporine]	13.9
